According to ChEMBL document CHEMBL1124964, “Synthesis, structure, and antiparasitic activity of sulfamoyl derivatives of ribavirin” (1990):
In brackets after ≈: the same amount, converted by molar mass. Several values for one entry are separate records, joined by “and”; a condition that tells them apart may be missing. Equal entries are not always repeated. One block for each compound: values may come before it.

Columns and labels:
Assay type in all cases: functional
Mus musculus [1] = test: In vivo antiparasitic activity against Trypanosoma brucei was tested at […]. Percent of mice cured after oral administration
Mus musculus [2] = test: In vivo antiparasitic activity against Trypanosoma brucei was tested at […]. Range of survival of mice.
Mus musculus [3] = test: In vivo antiparasitic activity against Trypanosoma brucei was tested at 25 mg/kg. Average survival time of the mice was determined
Trypanosoma brucei [4] = test: In vivo antiparasitic activity against Trypanosoma brucei was tested at 5 mg/kg. Average survival time of the mice taken in this experiment.
Leishmania donovani [5] = test: % Suppression = 100 - 100(LDUs of experimental / LDUs of control).
Trypanosoma brucei [6] = test: In vivo antiparasitic activity against Trypanosoma brucei was tested at 50 mg/kg (p.o.). Percent of mice cured after administering the compound.; details: route oral
Trypanosoma brucei [7] = test: In vivo antiparasitic activity against Trypanosoma brucei was tested. Percent of mice cured after administering the compound.
Trypanosoma brucei [8] = test: In vivo antiparasitic activity against Trypanosoma brucei was tested at 5 mg/kg. Percent of mice cured after administering the compound.
Trypanosoma brucei [9] = test: In vivo antiparasitic activity against Trypanosoma brucei was tested at 1 mg/kg. Average survival time of the mice was determined
Trypanosoma brucei [10] = test: In vivo antiparasitic activity against Trypanosoma brucei was tested at 1 mg/kg Percent of mice cured after oral administration
Trypanosoma brucei [11] = test: In vivo antiparasitic activity against Trypanosoma brucei was tested at 10 mg/kg. Range of survival of mice; 4-11
Trypanosoma brucei [12] = test: In vivo antiparasitic activity against Trypanosoma brucei was tested at 50 mg/kg (p.o.). Range of survival of mice; 10-14; details: route oral
Trypanosoma brucei [13] = test: In vivo antiparasitic activity against Trypanosoma brucei was tested at 5 mg/kg. Range of survival of mice; 4-6
Mus musculus [14] = species: Mus musculus; test: LDUs (Leishmania Donovan Units) in liver The liver parasite burden expressed as Leishmania Donovanii units
Trypanosoma brucei [15] = test: In vivo antiparasitic activity against Trypanosoma brucei was tested at 20 mg/kg. Range of survival of mice; 4-11
Leishmania donovani [16] = test: % Suppression = 100 - 100(LDUs of experimental / LDUs of control) at
Trypanosoma brucei [17] = test: In vivo antiparasitic activity against Trypanosoma brucei was tested at 50 mg/kg (i.v.).. Percent of mice cured after administering the compound.; details: route intravenous
Trypanosoma brucei [18] = test: In vivo antiparasitic activity against Trypanosoma brucei was tested at 50 mg/kg. Range of survival of mice; 10-4
Trypanosoma brucei [19] = test: In vivo antiparasitic activity against Trypanosoma brucei was tested at 20 mg/kg. Percent of mice cured after administering the compound.
Trypanosoma brucei [20] = test: In vivo antiparasitic activity against Trypanosoma brucei was tested at 50 mg/kg (p.o.). Average survival time of the mice taken in this experiment.; details: route oral
Giardia intestinalis = test: In vitro antiparasitic activity against Giardia lamblia was determined; details: Giardia duodenalis; read-out: ED50 (the source's name)
Trypanosoma brucei [21] = test: In vivo antiparasitic activity against Trypanosoma brucei was tested. Range of survival of mice.
[22] = tested on: Trypanosoma brucei gambiense; test: In vitro antiparasitic activity against Trypanosoma gambiense was determined; details: read-out: ED50 (the source's name)
Mus musculus [23] = species: Mus musculus; test: LDUs (Leishmania Donovan Units) in liver The liver parasite burden expressed as Leishmania Donovanii units at
Trichomonas vaginalis = test: In vitro antiparasitic activity against […] was determined; details: read-out: ED50 (the source's name)
Trypanosoma cruzi = test: In vitro antiparasitic activity against Trypanosoma cruzi was determined; details: read-out: ED50 (the source's name)
Trypanosoma brucei [24] = test: In vivo antiparasitic activity against Trypanosoma brucei was tested at 50 mg/kg (i.v.). Range of survival of mice; 4-12; details: route intravenous
Trypanosoma brucei [25] = test: In vivo antiparasitic activity against Trypanosoma brucei was tested at 20 mg/kg. Average survival time of the mice taken in this experiment.
Trypanosoma brucei [26] = test: In vivo antiparasitic activity against Trypanosoma brucei was tested at 1 mg/kg. Range of survival of mice; 4-5
Trypanosoma brucei [27] = test: In vivo antiparasitic activity against Trypanosoma brucei was tested at 50 mg/kg. Percent of mice cured after administering the compound.
Trypanosoma brucei [28] = test: In vivo antiparasitic activity against Trypanosoma brucei was tested at 10 mg/kg. Percent of mice cured after administering the compound.
Trypanosoma brucei [29] = test: In vivo antiparasitic activity against Trypanosoma brucei was tested at 50 mg/kg. Average survival time of the mice taken in this experiment.
Trypanosoma brucei [30] = test: In vivo antiparasitic activity against Trypanosoma brucei was tested at 10 mg/kg. Average survival time of the mice taken in this experiment.
Trypanosoma brucei [31] = test: In vivo antiparasitic activity against Trypanosoma brucei was tested at 50 mg/kg (i.v.). Average survival time of the mice taken in this experiment.; details: route intravenous
Leishmania donovani [32] = test: In vitro antiparasitic activity against Leishmania donovani was determined; details: read-out: ED50 (the source's name)
Trypanosoma brucei [33] = test: In vivo antiparasitic activity against Trypanosoma brucei was tested. Average survival time of the mice taken in this experiment.
Mus musculus [34] = test: In vivo LDUs (Leishmania Donovan Units) in liver of mouse at a dose of 10 mg/kg/day
Mus musculus [35] = test: In vivo LDUs (Leishmania Donovan Units) in liver of mouse at a dose of 20 mg/kg/day
Leishmania donovani [36] = test: % […] = 100 - 100(LDUs of experimental / LDUs of control).
Mus musculus [37] = test: In vivo LDUs (Leishmania Donovan Units) in liver of mouse at a dose of 50 mg/kg/day

SMILES: O=C1N=CN=C2C1N=CC2[C@@H]1O[C@H](CO)[C@@H](O)[C@H]1O (stereo partly specified)
Cured (Mus musculus [1]): 100%
Range of survival (Mus musculus [2]): 35
Average survival (Mus musculus [3]): 35 days

SMILES: NC(=O)c1ncn(C2O[C@H](COS(N)(=O)=O)[C@@H](O)[C@H]2O)n1 (stereo partly specified)
Average survival (Trypanosoma brucei [4]): 4.8 days
Suppression (Leishmania donovani [5]): 50% and 67%
Cured (Trypanosoma brucei [6]): 0%
Cured (Trypanosoma brucei [7]): 0%
Cured (Trypanosoma brucei [8]): 0%
Average survival (Trypanosoma brucei [9]): 4.6 days
Cured (Trypanosoma brucei [10]): 0%
Range of survival (Trypanosoma brucei [11]): 4
Range of survival (Trypanosoma brucei [12]): 10
Range of survival (Trypanosoma brucei [13]): 4
Activity (Mus musculus [14]): 765 and 501
Range of survival (Trypanosoma brucei [15]): 4
Suppression (Leishmania donovani [16]): 18%
Cured (Trypanosoma brucei [17]): 0%
Range of survival (Trypanosoma brucei [18]): 4
Cured (Trypanosoma brucei [19]): 0%
Average survival (Trypanosoma brucei [20]): 11.6 days
EC50 (Giardia intestinalis): 10 µg/mL (≈ 30.9 µM)
Range of survival (Trypanosoma brucei [21]): 5
EC50 [22]: 0.01 µg/mL (≈ 0.0309 µM)
Activity (Mus musculus [23]): 1244
EC50 (Trichomonas vaginalis): > 25 µg/mL
EC50 (Trypanosoma cruzi): > 50 µg/mL
Range of survival (Trypanosoma brucei [24]): 4
Average survival (Trypanosoma brucei [25]): 7.4 days
Range of survival (Trypanosoma brucei [26]): 4
Cured (Trypanosoma brucei [27]): 0%
Cured (Trypanosoma brucei [28]): 0%
Average survival (Trypanosoma brucei [29]): 6.4 days
Average survival (Trypanosoma brucei [30]): 7.4 days
Average survival (Trypanosoma brucei [31]): 6.4 days
EC50 (Leishmania donovani [32]): 0.03 µg/mL (≈ 0.0928 µM)
Average survival (Trypanosoma brucei [33]): 3.4 days

EC50 (Giardia intestinalis): > 25 µg/mL
EC50 [22]: 0.5 µg/mL (≈ 1.47 µM)
EC50 (Trypanosoma cruzi): > 50 µg/mL
EC50 (Leishmania donovani [32]): 2.5 µg/mL (≈ 7.37 µM)
SMILES: NC(=S)c1ncn(C2O[C@H](COS(N)(=O)=O)[C@@H](O)[C@H]2O)n1 (stereo partly specified)
Suppression (Leishmania donovani [5]): 0%
Activity (Mus musculus [34]): 1039
EC50 (Trichomonas vaginalis): 15 µg/mL (≈ 44.2 µM)
Activity (Mus musculus [35]): 1143
Suppression (Leishmania donovani [36]): 0%
Activity (Mus musculus [37]): 1514

EC50 (Giardia intestinalis): > 25 µg/mL
EC50 [22]: 1 µg/mL (≈ 3.28 µM)
EC50 (Trypanosoma cruzi): > 50 µg/mL
EC50 (Leishmania donovani [32]): 1 µg/mL (≈ 3.28 µM)
SMILES: N#Cc1ncn(C2O[C@H](COS(N)(=O)=O)[C@@H](O)[C@H]2O)n1 (stereo partly specified)
EC50 (Trichomonas vaginalis): > 25 µg/mL
